Data as given in publication PMC11613329, “An Optimized Marinopyrrole A Derivative Targets 6-Phosphoglucosamine Synthetase to Inhibit Methicillin-Resistant Staphylococcus aureus” (ACS Central Science, 2024).

Tests used:
[1] = molecular target: T1, 6-Phosphoglucosamine synthetase (GlmS) (Staphylococcus aureus, UniProt Q5HE49); experiment: SPR with purified GlmS; also thermal stability shift and enzymatic inhibition (IC50 […]); assay type: binding
T1 sequence (Q5HE49 2-601): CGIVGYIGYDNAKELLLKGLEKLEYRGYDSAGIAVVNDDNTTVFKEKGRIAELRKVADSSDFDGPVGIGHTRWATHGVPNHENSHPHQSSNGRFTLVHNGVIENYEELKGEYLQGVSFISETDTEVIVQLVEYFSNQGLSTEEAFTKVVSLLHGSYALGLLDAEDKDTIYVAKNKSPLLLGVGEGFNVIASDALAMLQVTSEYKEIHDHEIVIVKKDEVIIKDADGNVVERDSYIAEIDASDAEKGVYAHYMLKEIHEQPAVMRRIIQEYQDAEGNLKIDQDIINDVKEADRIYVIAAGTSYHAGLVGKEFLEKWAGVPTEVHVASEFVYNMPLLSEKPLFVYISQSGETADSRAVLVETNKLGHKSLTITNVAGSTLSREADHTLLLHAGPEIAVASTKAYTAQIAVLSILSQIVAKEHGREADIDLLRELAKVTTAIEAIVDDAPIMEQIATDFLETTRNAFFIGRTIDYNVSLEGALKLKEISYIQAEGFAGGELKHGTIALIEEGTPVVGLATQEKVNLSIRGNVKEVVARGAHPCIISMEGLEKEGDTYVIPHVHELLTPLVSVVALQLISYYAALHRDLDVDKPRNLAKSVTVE

[2] = molecular target: T1, 6-Phosphoglucosamine synthetase (GlmS); experiment: in vitro GlmS enzymatic assay, positive control; assay type: biochemical

Compound | Kd [1] [nM] | in vitro GlmS enzymatic assay, positive control [2]
O=C(c1ccc(C(F)(F)F)cc1O)c1[nH]c(Cl)c(Cl)c1-n1c(C(=O)c2ccc(C(F)(F)F)cc2O)cc(Cl)c1Cl [MA-D1] | 390 | 
COC(=O)/C=C/C(=O)NC[C@H](N)C(=O)O [FMDP, N^3-(4-metoxyfumaroyl)-(S)-2,3-diaminopropanoic acid] |  | The reported FMDP was used as a positive control.
